In PubChem BioAssay AID463229 (Broad Institute, 2010):

Tested on: INS-1E rat beta cells, no cytokines, CellTiter-Glo ATP, 48 h
Assay: ATP level change in INS-1E without cytokines, dose response, counter-screen for beta-cell apoptosis protection project, INS-1E rat cells, ATP luminescence, cherry pick (AID 463229)

Point of comparison: `O=C(N/N=C/c1ccccc1)c1c(O)c2ccccc2[nH]c1=O`, AC50 6.58 µM. Against it:
- CCOc1cc(/C=N/NC(=O)c2cc(-c3cccc(OC)c3)nc3ccccc23)ccc1O — within 1.5-fold, 6.59 µM
- C[C@H]1CCC/C=C/C2C[C@H](O)CC2[C@H](O)/C=C/C(=O)O1 (some centres undefined) — 7-fold lower, 0.94 µM
- CCCCC(=O)NC(c1cccs1)c1cc(Cl)c2cccnc2c1O (centres undefined) — within 1.5-fold, 5.89 µM
- O=C(Nc1ccc(N2CCN(Cc3ccccc3Cl)CC2)cc1)c1cccnc1 — within 1.5-fold, 5.98 µM
- CCC(C)c1ccc(NC(=S)NC2CCN(Cc3ccccc3)CC2)cc1 (centres undefined) — 1.6-fold higher, 10.4 µM
- CC1CCN(c2ccc(NC(=O)c3ccc([N+](=O)[O-])o3)cc2)CC1 — 1.5-fold higher, 10.1 µM
- Oc1ccc(N=Nc2ccccc2C(F)(F)F)c2cccnc12 — 2.1-fold lower, 3.18 µM
- CN(C)CC(C(=O)c1ccccc1)c1ccccc1 (centres undefined) — 1.8-fold higher, 11.8 µM
- O=[N+]([O-])c1ccc(O)c(-c2cc(C(F)(F)F)nc(-c3ccccc3)n2)c1 — 4.1-fold lower, 1.59 µM
- O=C(N/N=C/c1ccccc1O)C1CC(=O)N(c2ccc(Cl)cc2)C1 (centres undefined) — 2.7-fold higher, 17.7 µM
- O=C(c1cc(COc2ccc3ncccc3c2)on1)N1CCCCCC1 — within 1.5-fold, 8.02 µM
- CCCCC(=O)NC(c1ccccc1)c1ccc2cccnc2c1O (centres undefined) — 2.9-fold lower, 2.24 µM
- COc1cccc(/C=N/NC(=O)c2c(C)nc3ccc(Br)cn23)c1O — 2.1-fold lower, 3.16 µM
- CCS(=O)(=O)c1ncc(Cl)c(C(=O)Nc2ccc(S(=O)(=O)N3CCC(C)CC3)cc2)n1 — within 1.5-fold, 7.4 µM
- COc1ccc(/C=C/C(=O)c2ccc([N+](=O)[O-])o2)cc1 — 1.9-fold higher, 12.5 µM
- COc1ccc(/C=N/Nc2cc(C)nc(-n3nc(C)cc3C)n2)cc1 — 2.4-fold higher, 16.1 µM
- Cc1cccc(/C=N/NC(=O)c2ccc3c(c2)OCCO3)c1O — within 1.5-fold, 7.38 µM
- O=C(NCc1cccnc1)c1ccc([N+](=O)[O-])cc1 — within 1.5-fold, 5.86 µM
- CC(=O)c1c(C)[nH]c(C(=O)OCC(=O)Nc2ccc(Cl)cc2[N+](=O)[O-])c1C — 2.3-fold lower, 2.82 µM
- O=C(Nc1ccc(Cl)cc1)Nc1ccc(N2CCCC2)c(S(=O)(=O)Nc2ccccc2Cl)c1 — within 1.5-fold, 7.12 µM
- O=C(NC(c1cccnc1)C(F)(F)F)c1cc(COc2ccc3c(c2)CCCC3)on1 (centres undefined) — within 1.5-fold, 4.62 µM
- O=C(NC(c1ccc(Cl)cc1)c1cc(Cl)c2cccnc2c1O)c1cccnc1 (centres undefined) — within 1.5-fold, 6.6 µM
- C/C(=N\NC(=O)c1c(C)nc2ccccn12)c1ccc(O)cc1O — 3-fold higher, 19.5 µM
- Cc1cccc(N=Nc2ccc(O)c3ncccc23)c1 — within 1.5-fold, 5 µM
- CS(=O)(=O)c1ncc(Cl)c(C(=O)Nc2ccc(OC(F)F)cc2)n1 — 1.8-fold higher, 11.6 µM
- CCCCCCCC(=O)Nc1ccc(C(=O)N/N=C/c2cccc([N+](=O)[O-])c2)cc1 — within 1.5-fold, 6.63 µM
- Cc1cc(C)n(-c2nc(NCCN(C)C)c3c4c(sc3n2)CCCC4)n1 — within 1.5-fold, 9.54 µM
- O=C(c1cc2sccc2n1Cc1ccc(F)cc1)N1CCN(c2nc3ccccc3s2)CC1 — within 1.5-fold, 5.82 µM
- CCOC(=O)c1cnc(-n2nc(C)cc2C)nc1NC1CCCC1 — 2.8-fold lower, 2.38 µM
- C=C1C(=O)C=C2CN(C(=O)c3ccccc3)[C@@](Cc3ccc(F)cc3)(C(=O)OC)[C@@H]12 — 2.6-fold lower, 2.56 µM
- CCC1CCCCN1C(=O)c1cc(COc2ccc3ncccc3c2)on1 (centres undefined) — 2.4-fold lower, 2.74 µM
- O=S(=O)([N-]c1nc2ccccc2nc1-[n+]1ccc(Cc2ccccc2)cc1)c1ccc(Br)s1 — 2-fold higher, 12.9 µM
- Oc1ccc(N=Nc2ccc3c(c2)OCCO3)c2ncccc12 — 1.8-fold lower, 3.75 µM
- COc1ccc(OC)c(NC(=O)CSc2ncnc3c2cnn3-c2ccccc2Cl)c1 — 2.8-fold lower, 2.31 µM
- Cc1nnsc1C(=O)N/N=C/c1ccc2ccccc2c1O — 3.6-fold lower, 1.81 µM
- c1ccc2c(CN3CCCCCCC3)c[nH]c2c1 — within 1.5-fold, 4.48 µM
- Cc1[nH]n(-c2ccccc2)c(=O)c1/C=N\NC(=O)C1COc2ccccc2O1 (centres undefined) — 2.1-fold higher, 14 µM
- COc1ccc(Cn2c(-c3ccc(C)cc3)c[n+]3ccccc23)cc1 — within 1.5-fold, 5.23 µM
- Cc1cc(C)c2nc(NNC(=O)c3ccc(S(=O)(=O)N4CCCC(C)C4)cc3)sc2c1 (centres undefined) — within 1.5-fold, 4.52 µM
- CC(C)(C)c1cnnn1-c1ccc(/C=N/Nc2ccc([N+](=O)[O-])cc2)cc1 — within 1.5-fold, 7.77 µM
- Cn1cccc1C1C=C(c2ccc(C(C)(C)C)cc2)Nc2ncnn21 (centres undefined) — 2.1-fold lower, 3.2 µM
- NNc1nc(-c2ccccc2)cc(-c2ccccc2O)n1 — 2.7-fold higher, 17.7 µM
- Cc1cc(N2CCCC2=O)cc(C)c1S(=O)(=O)NCCOc1ccc(C(C)(C)C)cc1 — 2.2-fold lower, 3 µM
